Source: patent US12157730B2, “Heteroaryl derivative, method for producing same, and pharmaceutical composition comprising same as effective component” (VORONOI INC., priority 2019, dated 2024)

Molecular target: T1, Ba/F3 cell EGFR Exon20 ins NPH (Homo sapiens, UniProt P00533, INS773NPH)
T1 construct: expressed in transfected cells; host or cells: Ba/F3
Experiment: Ba/F3 cell proliferation suppression, EGFR Exon20 ins NPH
Assay type: cell-based
Conditions: GI50 class; Ba/F3 cell line with NPH inserted at Exon20 of EGFR; 72 hours
Summary of the method: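 72 h compound exposure, 0.3 nM–50 um (12 points, 3:1 dilution in DMSO); viability by CellTiter-Glo luminescence. Ba/F3 medium: RPMI-1640, 10% FBS, 5 ng/ml IL-3, 1 ug/ml puromycin for transduced cells. GI50 vs control, n=3.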

C=CC(=O)Nc1cc(Nc2cc(N3OCC[C@@H]3c3cccc(Cl)c3F)ncn2)c(OC)cc1N1CCC(N2CCN(C3CCCC3)CC2)CC1 [Example 101, N-(5-((6-((R)-3-(3-chloro-2-fluorophenyl)isoxazolidine-2-yl)pyrimidine-4-yl)amino)-2-(4-(4-cyclopentylpiperazine-1-yl)piperidine-1-yl)-4-methoxyphenyl) acrylamide]
Ba/F3 (NPH) Activity: A (GI50 < 50 nM)

C#Cc1cccc([C@H]2CCON2c2cc(Nc3cc(NC(=O)C=C)c(N4CCC(N5CCN(C6CC6)CC5)CC4)cc3OC)ncn2)c1 [Example 165, N-(2-(4-(4-cyclopropylpiperazine-1-yl)piperidine-1-yl)-5-((6-((R)-3-(3-ethynylphenyl)isoxazolidine-2-yl)pyrimidine-4-yl)amino)-4-methoxyphenyl) acrylamide]
Ba/F3 (NPH) Activity: A (GI50 < 50 nM)

C=CC(=O)Nc1cc(Nc2cc(N3OCC[C@@H]3c3ccc(C)nc3)ncn2)c(OC)cc1N(C)CCN(C)C [Example 36, N-(2-((2-(dimethylamino)ethyl)(methyl)amino)-4-methoxy-5-((6-((R)-3-(6-methylpyridine-3-yl)isoxazolidine-2-yl)pyrimidine-4-yl)amino)phenyl) acrylamide]
Ba/F3 (NPH) Activity: A (GI50 < 50 nM)

C=CC(=O)Nc1cc(Nc2cc(N3OCC[C@@H]3c3ccc(F)c(F)c3)ncn2)c(OC)cc1N1CC[C@@H](N(C)C)C1 [compound 577, N-(5-((6-((R)-3-(3,4-difluorophenyl)isoxazolidine-2-yl)pyrimidine-4-yl)amino)-2-((R)-3-(dimethylamino)pyrolidine-1-yl)-4-methoxyphenyl) acrylamide]
Ba/F3 (NPH) Activity: A (GI50 < 50 nM)

C=CC(=O)Nc1cc(Nc2cc(N3OCC[C@@H]3c3cccc(F)c3F)ncn2)c(OC)cc1N1CCC(N2CCN(CCC)CC2)CC1 [compound 342, N-(5-((6-((R)-3-(2,3-difluorophenyl)isoxazolidine-2-yl)pyrimidine-4-yl)amino)-4-methoxy-2-(4-(4-propylpiperazine-1-yl)piperidine-1-yl)phenyl)acrylamide]
Ba/F3 (NPH) Activity: A (GI50 < 50 nM)

C=CC(=O)Nc1cc(Nc2cc(N3OCC[C@H]3Cc3ccccc3)ncn2)c(OC)cc1N1CCN(CC2CC2)CC1 [compound 967, N-(5-((6-((R)-3-benzylisoxazolidine-2-yl)pyrimidine-4-yl)amino)-2-(4-(cyclopropylmethyl)piperazine-1-yl)-4-methoxyphenyl) acrylamide]
Ba/F3 (NPH) Activity: C (500 nM ≤ GI50 < 5000 nM)

C=CC(=O)Nc1cc(Nc2cc(N3OCC[C@@H]3Cc3ccccc3)ncn2)c(OC)cc1N1CCN(CC)CC1 [compound 946, N-(5-((6-((S)-3-benzylisoxazolidine-2-yl)pyrimidine-4-yl)amino)-2-(4-ethylpiperazine-1-yl)-4-methoxyphenyl) acrylamide]
Ba/F3 (NPH) Activity: A (GI50 < 50 nM)

C=CC(=O)Nc1cc(Nc2cc(N3OCC[C@@H]3Cc3ccccc3)ncn2)c(OC)cc1N1C[C@H]2C[C@@H]1CN2CC [compound 949, N-(5-((6-((S)-3-benzylisoxazolidine-2-yl)pyrimidine-4-yl)amino)-2-((1R,4R)-5-ethyl-2,5-diazabicyclo [2.2.1]heptane-2-yl)-4-methoxyphenyl) acrylamide]
Ba/F3 (NPH) Activity: A (GI50 < 50 nM)

C=CC(=O)Nc1cc(Nc2cc(N3OCC[C@@H]3c3cc(F)cc(Cl)c3)ncn2)c(OC)cc1N1CCC(O)CC1 [compound 591, N-(5-((6-((R)-3-(3-chloro-5-fluorophenyl)isoxazolidine-2-yl)pyrimidine-4-yl)amino)-2-(4-hydroxypiperidine-1-yl)-4-methoxyphenyl) acrylamide]
Ba/F3 (NPH) Activity: A (GI50 < 50 nM)

C=CC(=O)Nc1cc(Nc2cc(N3OCC[C@@H]3Cc3cccc(Cl)c3F)ncn2)c(OC)cc1N1CCC(N2C[C@@H]3C[C@H]2CO3)CC1 [compound 1022, N-(2-(4-((1S,4S)-2-oxa-5-azabicyclo [2.2.1]heptane-5-yl)piperidine-1-yl)-5-((6-((S)-3-(3-chloro-2-fluorobenzyl)isoxazolidine-2-yl)pyrimidine-4-yl)amino)-4-methoxyphenyl) acrylamide]
Ba/F3 (NPH) Activity: A (GI50 < 50 nM)

C#Cc1cccc([C@H]2CCON2c2cc(Nc3cc(NC(=O)C=C)c(N4CCC(N5CCOCC5)CC4)cc3OC)ncn2)c1 [compound 650, N-(5-((6-((R)-3-(3-ethynylphenyl)isoxazolidine-2-yl)pyrimidine-4-yl)amino)-4-methoxy-2-(4-morpholinopiperidine-1-yl)phenyl)acrylamide]
Ba/F3 (NPH) Activity: A (GI50 < 50 nM)

C=CC(=O)Nc1cc(Nc2cc(N3OCC[C@@H]3c3c(F)ccc(F)c3Cl)ncn2)c(OC)cc1N1CCN(C2CC2)CC1 [compound 691, N-(5-((6-((R)-3-(2-chloro-3,6-difluorophenyl)isoxazolidine-2-yl)pyrimidine-4-yl)amino)-2-(4-cyclopropylpiperazine-1-yl)-4-methoxyphenyl) acrylamide]
Ba/F3 (NPH) Activity: B (50 nM ≤ GI50 < 500 nM)

C=CC(=O)Nc1cc(Nc2cc(N3OCC[C@@H]3c3ccc(F)c(F)c3)ncn2)c(OC)cc1N1CCC(N2C[C@@H](C)O[C@@H](C)C2)CC1 [compound 543, N-(5-((6-((R)-3-(3,4-difluorophenyl)isoxazolidine-2-yl)pyrimidine-4-yl)amino)-2-(4-((2S,6R)-2,6-dimethylmorpholino)piperidine-1-yl)-4-methoxyphenyl) acrylamide]
Ba/F3 (NPH) Activity: A (GI50 < 50 nM)

C=CC(=O)Nc1cc(Nc2cc(N3OCC[C@@H]3c3cccc(Cl)c3)ncn2)c(OC)cc1N1CCC(N2C[C@H]3C[C@@H]2CO3)CC1 [compound 472, N-(2-(4-((1R,4R)-2-oxa-5-azabicyclo[2.2.1]heptane-5-yl)piperidine-1-yl)-5-((6-((R)-3-(3-chlorophenyl)isoxazolidine-2-yl)pyrimidine-4-yl)amino)-4-methoxyphenyl) acrylamide]
Ba/F3 (NPH) Activity: A (GI50 < 50 nM)

C=CC(=O)Nc1cc(Nc2cc(N3OCC[C@@H]3c3cccc(Cl)c3)ncn2)c(OC)cc1N1CCC(N2CCN(C(C)=O)CC2)CC1 [compound 471, N-(2-(4-(4-acetylpiperazine-1-yl)piperidine-1-yl)-5-((6-((R)-3-(3-chlorophenyl)isoxazolidine-2-yl)pyrimidine-4-yl)amino)-4-methoxyphenyl) acrylamide]
Ba/F3 (NPH) Activity: A (GI50 < 50 nM)

C=CC(=O)Nc1cc(Nc2cc(N3OCC[C@@H]3c3cccc(C#N)c3)ncn2)c(OC)cc1N1CCC(N(C)C)CC1 [compound 394, N-(5-((6-((R)-3-(3-cyanophenyl)isoxazolidine-2-yl)pyrimidine-4-yl)amino)-2-(4-(dimethylamino)piperidine-1-yl)-4-methoxyphenyl) acrylamide]
Ba/F3 (NPH) Activity: A (GI50 < 50 nM)

C=CC(=O)Nc1cc(Nc2cc(N3OCC[C@@H]3c3cccc(F)c3Cl)ncn2)c(OC)cc1N1CCC(N2CCN(C3CC3)CC2)CC1 [Example 164, N-(5-((6-((R)-3-(2-chloro-3-fluorophenyl)isoxazolidine-2-yl)pyrimidine-4-yl)amino)-2-(4-(4-cyclopropylpiperazine-1-yl)piperidine-1-yl)-4-methoxyphenyl) acrylamide]
Ba/F3 (NPH) Activity: A (GI50 < 50 nM)

C=CC(=O)Nc1cc(Nc2cc(N3OCC[C@@H]3c3ccc(Cl)c(Cl)c3F)ncn2)c(OC)cc1N1CC[C@@H](N(C)C)C1 [Example 291, N-(5-((6-((R)-3-(3,4-dichloro-2-fluorophenyl)isoxazolidine-2-yl)pyrimidine-4-yl)amino)-2-((R)-3-(dimethylamino)pyrolidine-1-yl)-4-methoxyphenyl) acrylamide]
Ba/F3 (NPH) Activity: B (50 nM ≤ GI50 < 500 nM)

C=CC(=O)Nc1cc(Nc2cc(N3OCC[C@@H]3c3cccc(C(F)(F)F)c3)ncn2)c(OC)cc1N1CCN(C2CC2)CC1 [compound 940, N-(2-(4-cyclopropylpiperazine-1-yl)-4-methoxy-5-((6-((R)-3-(3-(trifluoromethyl)pheyyl)isoxazolidine-2-yl)pyrimidine-4-yl)amino)phenyl) acrylamide]
Ba/F3 (NPH) Activity: B (50 nM ≤ GI50 < 500 nM)

C=CC(=O)Nc1cc(Nc2cc(N3OCC[C@@H]3c3cc(F)cc(Cl)c3)ncn2)c(OC)cc1N1CC(N2CCN(C3CC3)CC2)C1 [compound 587, N-(5-((6-((R)-3-(3-chloro-5-fluorophenyl)isoxazolidine-2-yl)pyrimidine-4-yl)amino)-2-(3-(4-cyclopropylpiperazine-1-yl)azetidine-1-yl)-4-methoxyphenyl) acrylamide]
Ba/F3 (NPH) Activity: B (50 nM ≤ GI50 < 500 nM)

C=CC(=O)Nc1cc(Nc2cc(N3OCC[C@@H]3Cc3cccc(F)c3C)ncn2)c(OC)cc1N1CCC(N2CCN(C3CC3)[C@@H](C)C2)CC1 [compound 1005, N-(2-(4-((S)-4-cyclopropyl-3-methylpiperazine-1-yl)piperidine-1-yl)-5-((6-((S)-3-(3-fluoro-2-methylbenzyl)isoxazolidine-2-yl)pyrimidine-4-yl)amino)-4-methoxyphenyl) acrylamide]
Ba/F3 (NPH) Activity: A (GI50 < 50 nM)

C=CC(=O)Nc1cc(Nc2cc(N3OCC[C@@H]3c3ccc(Cl)c(F)c3)ncn2)c(OC)cc1N1C[C@H]2C[C@@H]1CO2 [compound 863, N-(2-((1R,4R)-2-oxa-5-azabicyclo [2.2.1]heptane-5-yl)-5-((6-((R)-3-(4-chloro-3-fluorophenyl)isoxazolidine-2-yl)pyrimidine-4-yl)amino)-4-methoxyphenyl) acrylamide]
Ba/F3 (NPH) Activity: A (GI50 < 50 nM)

C=CC(=O)Nc1cc(Nc2cc(N3OCC[C@@H]3c3cccc(Cl)c3)ncn2)c(OC)cc1N1CCC(N2CCN(C3COC3)CC2)CC1 [Example 199, N-(5-((6-((R)-3-(3-chlorophenyl)isoxazolidine-2-yl)pyrimidine-4-yl)amino)-4-methoxy-2-(4-(4-(oxetane-3-yl)piperazine-1-yl)piperidine-1-yl)phenyl)acrylamide]
Ba/F3 (NPH) Activity: A (GI50 < 50 nM)
